This is an account of results in ChEMBL document CHEMBL1138170, “Novel lactam NK1 antagonists with anti-emetic activity” (Bioorg Med Chem Lett, 2006).

Assay [1] deals with Voltage-gated inwardly rectifying potassium channel KCNH2 (Homo sapiens, UniProt Q12809). Kind of assay: Displacement of labelled MK-499 from cloned channel hERG expressed in HEK cells. The assay is classed as cell-based, HEK293. Background: The hERG channel carries a current that helps repolarise heart muscle cells.
The subject of assay [2] is Mustela putorius furo. As to the kind of experiment: Inhibition of cis-platin induced emesis in ferrets at 1 mg/kg, iv. Format: functional.
Assay [3] deals with Substance-P receptor (Homo sapiens, UniProt P25103). Kind of assay: Displacement of [125I]-labeled substance P from the cloned human NK1 receptor expressed in CHO cells. The assay is classed as cell-based. For orientation: In a radioligand displacement assay an active substance lowers the binding of a labelled ligand.
For assay [4], the system named is Gerbil, jird. As to the kind of experiment: Inhibition of GR-73632-induced foot-tapping in iv dosed gerbils after 0 h. The conditions noted are these: Meriones, read-out: ID50 (the source's name). The assay is classed as functional.
Assay [5] has as its system Gerbil, jird. Kind of assay: Inhibition of GR-73632-induced foot-tapping in gerbils after 24 h at 3 mg/kg, iv. The assay is classed as functional. The conditions noted are these: Meriones.
Assay [6] has as its system Gerbil, jird. As to the kind of experiment: Inhibition of GR-73632-induced foot-tapping in iv dosed gerbils after 24 h. The conditions noted are these: Meriones, read-out: ID50 (the source's name).
Assay [7] relates to Gerbil, jird. Kind of assay: Inhibition of GR-73632-induced foot-tapping in iv dosed gerbils after 24 h. The assay is classed as functional. The conditions noted are these: Meriones, read-out: ID50 (the source's name).
Assay [8] relates to Gerbil, jird. Kind of assay: Inhibition of GR-73632-induced foot-tapping in po dosed gerbils after 24 h. The following applies: Meriones, read-out: ID50 (the source's name). Format: functional.
Assay [9] has as its system Gerbil, jird. Kind of assay: Inhibition of GR-73632-induced foot-tapping in iv dosed gerbils after 2 h. Format: functional. The conditions noted are these: Meriones, read-out: ID50 (the source's name).

Sequence of Voltage-gated inwardly rectifying potassium channel KCNH2 (Q12809 whole entry): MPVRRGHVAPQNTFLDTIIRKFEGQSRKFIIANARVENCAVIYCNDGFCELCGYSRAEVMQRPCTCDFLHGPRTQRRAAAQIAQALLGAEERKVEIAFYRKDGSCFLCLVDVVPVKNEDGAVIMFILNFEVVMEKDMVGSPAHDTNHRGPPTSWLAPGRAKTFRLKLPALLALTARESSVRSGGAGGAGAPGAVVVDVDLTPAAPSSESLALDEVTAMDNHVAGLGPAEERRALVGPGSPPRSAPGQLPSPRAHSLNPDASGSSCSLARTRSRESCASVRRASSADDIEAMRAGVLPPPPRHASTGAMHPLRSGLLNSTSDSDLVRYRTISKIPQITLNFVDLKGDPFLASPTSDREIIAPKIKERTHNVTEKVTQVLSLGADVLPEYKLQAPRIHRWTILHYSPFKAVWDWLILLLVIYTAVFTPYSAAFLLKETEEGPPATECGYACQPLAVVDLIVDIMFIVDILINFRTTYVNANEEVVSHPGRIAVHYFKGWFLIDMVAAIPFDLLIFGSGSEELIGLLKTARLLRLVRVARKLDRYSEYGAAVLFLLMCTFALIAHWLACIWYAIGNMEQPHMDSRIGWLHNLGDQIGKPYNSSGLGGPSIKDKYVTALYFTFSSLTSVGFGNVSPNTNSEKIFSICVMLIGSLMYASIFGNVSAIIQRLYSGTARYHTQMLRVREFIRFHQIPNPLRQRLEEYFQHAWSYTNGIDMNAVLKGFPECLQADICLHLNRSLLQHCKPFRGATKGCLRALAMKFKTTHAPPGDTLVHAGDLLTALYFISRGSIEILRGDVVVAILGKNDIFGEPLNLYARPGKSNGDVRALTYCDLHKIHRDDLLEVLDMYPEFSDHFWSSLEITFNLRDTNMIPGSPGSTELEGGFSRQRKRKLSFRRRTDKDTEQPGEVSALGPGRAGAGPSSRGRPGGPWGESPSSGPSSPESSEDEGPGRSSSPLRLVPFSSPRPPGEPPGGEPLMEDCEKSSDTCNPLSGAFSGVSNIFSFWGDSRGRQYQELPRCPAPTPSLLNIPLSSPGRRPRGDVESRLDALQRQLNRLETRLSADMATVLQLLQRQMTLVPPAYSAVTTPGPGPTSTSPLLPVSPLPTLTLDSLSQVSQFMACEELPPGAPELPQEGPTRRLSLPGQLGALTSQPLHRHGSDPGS
Sequence of Substance-P receptor (P25103 whole entry): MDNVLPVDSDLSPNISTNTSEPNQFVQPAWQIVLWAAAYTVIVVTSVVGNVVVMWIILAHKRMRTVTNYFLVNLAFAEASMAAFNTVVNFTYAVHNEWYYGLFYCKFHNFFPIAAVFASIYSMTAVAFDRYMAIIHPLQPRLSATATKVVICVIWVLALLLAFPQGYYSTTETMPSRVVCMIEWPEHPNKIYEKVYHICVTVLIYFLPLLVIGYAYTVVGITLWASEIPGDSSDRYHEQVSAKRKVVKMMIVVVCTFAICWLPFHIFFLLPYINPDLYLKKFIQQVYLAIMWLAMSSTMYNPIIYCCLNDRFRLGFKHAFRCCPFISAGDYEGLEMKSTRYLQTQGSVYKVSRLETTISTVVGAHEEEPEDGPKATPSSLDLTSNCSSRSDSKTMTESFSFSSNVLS

In assay [1], `O=C1C(c2cc(C(F)(F)F)cc(C(F)(F)F)c2)CCN1[C@]1(c2ccccc2)CC[C@@H](N2CCC3(CCOC3)CC2)CC1` (some centres undefined) had a Ki of 327 nM. In addition, the inhibition in vivo at 1 mg/kg in [2] worked out at 50%. Besides, in [3], the IC50 was determined as 0.5 nM. For the same molecule, the ED50 in [4] turned out to be 0.35 mg/kg. 3 mg/kg produced 62% inhibition in vivo in assay [5].

For the molecule `O=C1N([C@]2(c3ccccc3)CC[C@@H](N3CCC4(CCOC4)CC3)CC2)CCC1(O)c1cc(C(F)(F)F)cc(C(F)(F)F)c1` (some centres undefined), the affinity in [1] corresponds to a Ki of 862 nM. In addition, in [3], the IC50 was found to be 0.66 nM. In assay [5], the inhibition in vivo at 3 mg/kg is 5%.

In assay [1], `CN(C)[C@H]1CC[C@](c2ccccc2)(N2CCC(c3cc(C(F)(F)F)cc(C(F)(F)F)c3)C2=O)CC1` (some centres undefined) returned a Ki of 984 nM. Further, the IC50 in assay [3] was 6.2 nM.

As for `O=C1CN([C@H]2CC[C@](c3ccccc3)(N3CCC(c4cc(C(F)(F)F)cc(C(F)(F)F)c4)C3=O)CC2)CCN1c1ccccc1` (some centres undefined), the Ki in assay [1] is 2000 nM. The figures for the ED50 in [6] and in assay [4] were 2.1 mg/kg and 0.09 mg/kg, respectively. The IC50 in assay [3] was 1.1 nM.

Turning to `CC1(c2cc(C(F)(F)F)cc(C(F)(F)F)c2)CCN([C@]2(c3ccccc3)CC[C@@H](N3CCC4(CCOC4)CC3)CC2)C1=O` (some centres undefined), the Ki in assay [1] worked out at 364 nM. Also, the IC50 in assay [3] is 0.33 nM. For the same molecule, the ED50 in assay [7] came out at 0.24 mg/kg.

In the case of `CC(C(=O)N[C@]1(c2ccccc2)CC[C@@H](N2CCN(c3ccccc3)C(=O)C2)CC1)c1cc(C(F)(F)F)cc(C(F)(F)F)c1` (some centres undefined), the Ki in assay [1] stood at 3710 nM. Besides, the IC50 in assay [3] is 0.62 nM. The ED50 was 1.2 mg/kg in assay [7] and 0.13 mg/kg in [4].

On to `O=C1CN([C@H]2CC[C@](c3ccccc3)(N3CCCC(c4cc(C(F)(F)F)cc(C(F)(F)F)c4)C3=O)CC2)CCN1c1ccccc1` (some centres undefined), for which affinity in [1] was put at a Ki of 6530 nM. The IC50 in assay [3] was found to be 1.5 nM.

The molecule `O=C1C(c2cc(C(F)(F)F)cc(C(F)(F)F)c2)CCCN1[C@]1(c2ccccc2)CC[C@@H](N2CCC3(CCOC3)CC2)CC1` (some centres undefined) gave an inhibition constant Ki in assay [1] of 798 nM. The IC50 in [3] came out at 0.8 nM. In assay [5], this molecule yielded an inhibition in vivo at 3 mg/kg of 34%.

For `CC(C(=O)N[C@]1(c2ccccc2)CC[C@@H](N2CCC3(CCOC3)CC2)CC1)c1cc(C(F)(F)F)cc(C(F)(F)F)c1` (some centres undefined), the ED50 in assay [8] was 2.2 mg/kg; in assay [7], 1.62 mg/kg; in assay [4] it was 1.44 mg/kg; in [9] it was 1.1 mg/kg. The IC50 in [3] is 0.34 nM.

Regarding `CC1(c2cc(C(F)(F)F)cc(C(F)(F)F)c2)CCN([C@]2(c3ccccc3)CC[C@@H](N3CCN(c4ccccc4Cl)C(=O)C3)CC2)C1=O` (some centres undefined), in assay [3], the IC50 was 0.48 nM. The same molecule gave an inhibition in vivo at 3 mg/kg in assay [5] of 57%.

On to `COC1(c2cc(C(F)(F)F)cc(C(F)(F)F)c2)CCN([C@]2(c3ccccc3)CC[C@@H](N3CCC4(CCOC4)CC3)CC2)C1=O` (some centres undefined), for which, in assay [3], the IC50 turned out to be 0.48 nM. In assay [5], this molecule had an inhibition in vivo at 3 mg/kg of 29%.

In the case of `CC1(c2cc(C(F)(F)F)cc(C(F)(F)F)c2)CCN([C@]2(c3ccccc3)CC[C@@H](N3CCN(c4ccccc4)C(=O)C3)CC2)C1=O` (some centres undefined), the inhibition in vivo at 1 mg/kg in assay [2] is 90%. Further, the IC50 in [3] was 0.48 nM. Further, the ED50 in [7] was found to be 0.6 mg/kg; in assay [4] it was 0.22 mg/kg.

In general, Ki refers to the dissociation constant of the complex between target and ligand, obtained from inhibition or displacement. Read a high Ki as weaker binding. Broadly, the inhibition in vivo is the share of the control response that was lost under treatment. A higher inhibition in vivo goes with a strong effect. The term IC50 denotes the midpoint of a concentration-inhibition curve.
